Results published in publication PMC7377239, “Cardiovascular Effects of Polychlorinated Biphenyls and Their Major Metabolites” (Environmental Health Perspectives, 2020).
Read-outs that look alike come from different tables or passages of the source.

Assays:
HUVECs = assay: High-content imaging cytotoxicity in HUVECs, 24 h; assay type: cell-based, human; conditions: Homo sapiens, HUVEC, 24 h, HUVEC, 24 hr
Procedure, shortened: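 Read-out: multiwavelength high-content imaging of Hoechst 33342, MitoTracker Orange and calcein AM after 24 h compound exposure of confluent HUVEC monolayers. POD values were set using a one-SD cutoff from vehicle (0.5% DMSO) means; with no concentration–response, 100μM was assigned as no observable adverse effect level.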

[1] = system: iCell cardiomyocytes (human iPSC-derived cardiomyocytes); assay: High-content imaging of cytotoxicity and mitochondrial integrity in iPSC-CMs; assay type: cell-based; conditions: Homo sapiens, Cardiomyocyte, cardiomyocytes (cm)
Procedure, shortened: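 This assay measured cytotoxicity and mitochondrial integrity in iPSC cardiomyocytes held in 40μL maintenance medium. After compound exposure, a 2× staining solution with Hoechst 33342 (4μg/mL) and MitoTracker™ Orange (0.4μM) was applied for 15 min at 37°C. Cells were washed, fixed with 3.7% formaldehyde, imaged on DAPI and Cy3 channels, and scored in MetaXpress®.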

`Oc1cc(Cl)cc(-c2cccc(Cl)c2)c1` [5-OH-PCB 11] gave a minimal effective concentration (HUVECs; cyto, read-out: POD huvec.cyto.24hr) of 0.95 µM, a minimal effective concentration (HUVECs; mito, read-out: POD huvec.mito.24hr) of 0.84 µM and a minimal effective concentration (HUVECs; mitoint, read-out: POD huvec.mitoint.24hr) of 3.3 µM. It also gave a minimal effective concentration (HUVECs; nma, read-out: POD huvec.nma.24hr) of 1.22 µM, a minimal effective concentration (HUVECs; tc, read-out: POD huvec.tc.24hr) of 0.95 µM and a minimal effective concentration ([1]; 1.5 h, cam, 90 min, read-out: POD cm.cam.90min) of 16.2 µM. The minimal effective concentration ([1]; 1.5 h, mii, 90 min, read-out: POD cm.mii.90min) was 34.1 µM, the minimal effective concentration ([1]; 1.5 h, mito, 90 min, read-out: POD cm.mito.90min) was 13.8 µM and the minimal effective concentration ([1]; 1.5 h, tc, 90 min, read-out: POD cm.tc.90min) was 14 µM. For the same compound, the minimal effective concentration ([1]; 24 h, cam, 24 hrs, read-out: POD cm.cam.24hrs) was 13.8 µM, the minimal effective concentration ([1]; 24 h, mii, 24 hrs, read-out: POD cm.mii.24hrs) was 8.43 µM and the minimal effective concentration ([1]; 24 h, mito, 24 hrs, read-out: POD cm.mito.24hrs) was 14.6 µM. For the same compound, the minimal effective concentration ([1]; 24 h, tc, 24 hrs, read-out: POD cm.tc.24hrs) was 10.7 µM.
